Results: patent publication US11229628B2, “TRPA1 and TRPV4 inhibitors and methods of using the same for organ-specific inflammation and itch” (Duke University, priority 2015, dated 2022)
“Also recorded” adds a separate entry of the source.

What was measured:
ET1 secretion by 1° MK = assay: ET1 secretion by non-stimulated 1° MK (ELISA of supernatant); type: cell-based, mouse
Procedure: FIG. 8: Central role for KC TRPV4 in UVB-evoked Ca^++ signaling and nocifensive behavior—ET1-related supplementary findings. (A) Augmentation of GSK101-evoked Ca^++ signaling by ET1. Shown are averaged Ca^++ measurements (fura-2) in response to 5 nM GSK101. […] (B) ET1 secretion by non-stimulated 1° MK depends on TRPV4 and PLC. Shown are relative ET1 concentrations (determined by ELISA, pg/mL; vehicle-treated and WT control normalized to 100) in supernatant of non-stimulated 1° MK. Note the clear dependence on TRPV4, as indicated by a 50% reduction in Trpv4^−/− 1° MK. […] In addition, PLC-inhibitor robustly affects ET1 secretion in WT and Trpv4^−/− 1° MK. (C) ET1 expression by UVB-exposed 1° MK depends on TRPV4 and PLC—immunocytochemistry. Shown is specific ET1 immunolabeling in 1° MK, exposed to UVB using the UVB-LEDs, as for Ca^++ imaging. Use of the UVB-LED device precluded application of a ET1 ELISA, only irradiated cells could be examined. […] (D) ET1 expression by UVB-exposed 1° MK depends on TRPV4 and PLC—quantification of immunocytochemistry.
(§1) We tested whether UVB causes ET1 upregulation in a TRPV4-dependent manner. Given the exquisite wave-length dependence of ET1 expression in 1° MKs, we resorted to the UVB-LED device as for Ca++ imaging (FIG. 6A and FIG. 2A-D). […] Consistent with its effects on UVB-evoked Ca++ transients, PLC-inhibitor U73122 also dampened ET1 expression. […] This leads to TRPV4-dependent Ca++ signaling, which in turn amplifies ET1 signaling in a paracrine/autocrine fashion.

ET1 expression in 1° MK = assay: ET1 expression by UVB-exposed 1° MK (immunocytochemistry); type: cell-based, mouse; settings: 295 nm UVB-LED, 24 hours
Procedure: 1° MK were exposed to UVB using the UV optical system (295 nm LED). 24 hours later the cells were fixed and fluorescently immunolabeled for ET1. Digital images were captured and subjected to morphometry.
Mouse keratinocytes were cultured on collagen coated quartz coverslips and then stimulated from the bottom using the previously mentioned UV optical system using the 295 nm LED. 24 hours later the cells were fixed in 4% formaldehyde in PBS for 20 minutes, permeabilized with 0.1% Triton X-100 in PBS for 10 minutes, washed, then blocked in 10% normal goat serum in PBS for 45 minutes. Coverslips were incubated overnight with primary antibody mouse anti-ET1 (1:200; Abcam), washed three times in PBS and incubated with secondary antibody for 2 hours at 25° C. Coverslips were washed three times in PBS, once with double-distilled H2O. Digital images were captured using a 40× immersion lens on the BX61 Olympus upright microscope. Morphometric analysis was conducted using ImageJ freeware with tailored regions-of-interest.
as §1

mice = assay: UVB-evoked nocifensive behavior after topical GSK205 (Hargreaves' test, von Frey hair); type: in vivo, mouse
Procedure: A viscous solution of 68% EtOH/5% glycerol plus 1 mM or 5 mM GSK205 (none for control) was applied to hindpaws by rubbing in 20 μL, applied at time-points 1 hour and again 10 min before UV exposure.
Behavioral tests were performed to evaluate the decrease in withdrawal thresholds in response to mechanical or thermal stimuli applied to hind paws. These withdrawal thresholds were ascertained before and after UVB exposure. Mice were confined by plexi-glass enclosures on top of 25×26 cm Bio Rad Gel Doc 2000 UV transilluminator (302 nm), and otherwise allowed to openly explore this environment. UV-exposure lasted for 5 minutes with an exposure of 600 mJ/cm^2.
Hindpaw mechanical withdrawal thresholds were determined by the automated von Frey hair method, using a 0.5 mm diameter stainless steel filament, part of an automated plantar touch stimulator (Ugo Basile, Modena, Italy). Relevant detail included pre-test acclimatization in a quiet room for 30 min, conducting the test at the same time of day and blinded observers. The stimulus was delivered to the hindpaw, automatically discontinued upon withdrawal, and its intensity recorded automatically. 6-8 trials per animal were conducted, with equal exposure of both hindpaws, leading to an average withdrawal threshold. Results are reported as Δ-threshold, which was calculated by subtracting post-treatment from pre-treatment measurements, expressed as % or relative to 1.0.
Hindpaw thermal (hot) withdrawal thresholds were determined by the well-established Hargreaves' method, using an infra-red thermal stimulation device that delivers the stimulus from underneath the hindpaw combined with automatic shut-off upon withdrawal (Ugo Basile). Stimulation and measurements were conducted as described for von Frey hair testing. A cutoff of 20 sec was set to prevent tissue damage.
In view of the observed impact of epidermal-specific TRPV4-deficiency on mouse nociception in response to UVB, and because of the unambiguous effects of selective TRPV4 blockers on 1° MK in vitro, we tested the possible clinical relevance of our findings. For this purpose, we topically applied TRPV4 inhibitor GSK205 to WT mouse skin and subsequently exposed animals to UVB (FIG. 12A).

IL-1β secretion by 1° MK = assay: IL-1β secreted by cultured keratinocytes after UVB exposure (ELISA); type: cell-based, mouse; settings: 5 μM GSK205
Procedure: Before UV irradiation, culture media was replaced with PBS. The cells were then irradiated at a dose of 50 mJ/cm^2 with UVB. 24 hours later, supernatants were assayed using IL-1β ELISA (R&D Systems, Minneapolis, Minn.).
We also tested the response of down-stream UVB effector mechanisms to GSK205 treatment in vivo.

[1] = test system: mouse primary keratinocytes; assay: Histamine receptor-mediated Ca++ transients in mouse primary keratinocytes (fura-2); type: cell-based
Procedure: Mouse primary keratinocytes were prepared as described in Moore et al. (Proc Natl Acad Sci USA, 2013, 110, E3225-3416). Cells were pre-treated, for 10 min with 10 μM GSK205. Then 100 μM of each, histamine, 2-Pyridylethylamine (selective activator for H1R), and 4-Methylhistamine (selective activator for H4R; both H1R and H4R known to be expressed in rodent and human keratinocytes), were applied, and fura-2 loaded keratinocytes were imaged ratiometrically, as described (Moore et al. Proc Natl Acad Sci USA, 2013, 110, E3225-3416; Li, et al. Environ Health Perspect, 2011, 119, 784-9316). Shown in blue (top curve) is the average signal of ≥75 cells. Note the robust signal for histamine, and in response to selective activator of H1R, less prominent for H4R, in keeping with previous findings on expression levels of these channels in keratinocytes.

Q: For `CN(CCc1ccc(Nc2nc(-c3cccnc3)cs2)cc1)Cc1ccccc1` [GSK205], which “ET1 secretion by non-stimulated 1° MK” value (ET1 secretion by 1° MK) is on record?
A: significant down-regulation

Q: And the “ET1 immunoreactivity in UVB-exposed 1° MK” value (ET1 expression in 1° MK)?
A: diminished; also recorded: significant down-regulation

Q: What about the “delay in thermal sensitivity after UVB” value (mice; topical 1 mM GSK205, Hargreaves' test) of the same molecule?
A: ~24 h

Q: What about the “sensitivity to von Frey hair mechanical stimulation after UVB” value (mice; topical 5 mM GSK205) of the same molecule?
A: significantly reduced sensitivity

Q: What about the “thermally-evoked nocifensive behavior (thermal allodynia) after UVB” value (mice; topical 5 mM GSK205, Hargreaves' test, 48 hours post-UVB) of the same molecule?
A: sustained attenuation; also recorded: significant attenuation of thermal allodynia

Q: And the “nocifensive behavior after UVB in Trpv4−/− mice (off-target effects)” value (mice; topical 5 mM GSK205 vs. vehicle, Trpv4−/− mice)?
A: did not show any inter-group differences; also recorded: lack of off-target effects

Q: And the “UVB-induced increase in IL-1β secretion by 1° MK” value (IL-1β secretion by 1° MK)?
A: completely eliminated; also recorded: prevention of increase in IL-1β secretion

Q: What about the “histamine-Ca++ response” value ([1]; 10 μM GSK205 10 min pre-treatment, 100 μM histamine) of the same molecule?
A: eliminated completely

Q: And the “Ca++ response to activation of H1R” value ([1]; 10 μM GSK205, 100 μM 2-Pyridylethylamine)?
A: eliminated completely

Q: What about the “Ca++ response to H4R” value ([1]; 10 μM GSK205, 100 μM 4-Methylhistamine) of the same molecule?
A: significantly attenuated
